# Experimental data published in patent EP4570245A1, “COMBINED AGENTS WITH SYNERGISTIC EFFECT AGAINST GLIOMAS” (Eberhard Karls Universität Tübingen Medizinische Fakultät, priority 2023, dated 2025).
# Key:
# [1] = test system: LN18 and T98G glioma cell lines; experiment: Clonogenic survival assay of shRNA knockdown cells under CCNU treatment; assay type: cell-based
# Description: The inventors seeded the cells one day prior to treatment. The inventors then treated the cells with the specified concentrations in serum-free medium for 24 hours. Afterward, they changed the medium back to one containing FCS and incubated the cells for a period ranging from 14 to 21 days. The inventors stained the colonies using 0.5% w/v crystal violet and counted them. Measurements were normalized to the respective vehicle control wells.
# Based on the CRISPR/Cas9 screen result a loss of the Fanconi anemia DNA repair pathway should increase the effect of CCNU treatment. Therefore, the inventors induced an shRNA knockdown in LN18 and T98G glioma cell lines for FANCA or FANCD2. These knockdown cell lines were treated in clonogenic survival assays with CCNU in comparison to a control cell line transduced with a vector coding for an shRNA against Luciferase (Figure 2).
# [2] = biological target: T1, RMI (RecQ-mediated genome instability protein) core complex/MM2 interaction (Homo sapiens, UniProt Q96E14+Q9H9A7); settings: inhibitor of RMI core complex/MM2 interaction; MM2 is the binding site of RMI complex on FANCM; cited from earlier work
# T1 sequence (Q9H9A7 473-625 limits assumed): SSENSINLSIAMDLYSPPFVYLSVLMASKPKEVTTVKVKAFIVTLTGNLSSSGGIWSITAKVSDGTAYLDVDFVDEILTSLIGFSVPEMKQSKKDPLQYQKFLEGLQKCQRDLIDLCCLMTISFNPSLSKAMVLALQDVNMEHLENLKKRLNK
# T1 sequence (Q96E14 1-147): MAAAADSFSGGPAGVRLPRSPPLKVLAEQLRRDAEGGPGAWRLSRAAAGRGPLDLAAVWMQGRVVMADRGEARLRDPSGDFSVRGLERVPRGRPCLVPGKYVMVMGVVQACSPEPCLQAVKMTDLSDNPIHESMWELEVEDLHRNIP
compound,measurement,setting,value
"O=NN(CCCl)C(=O)NC1CCCCC1 [CCNU, lomustine]",sensitivity to CCNU treatment,[1]; FANCA shRNA knockdown cell lines compared to the luciferase shRNA control,more sensitive
same,sensitivity to CCNU treatment,[1]; FANCD2 shRNA knockdown cell lines compared to the luciferase shRNA control,more sensitive
CCOC(=O)N1CCN(C(c2ccccn2)c2c(-c3ccccc3)n(O)c3ccccc23)CC1 (stereo not drawn) [PIP-199],IC50,[2],36 µM
